Results as given in ChEMBL document CHEMBL1148838, “Synthesis and antibacterial evaluation of a novel series of rifabutin-like spirorifamycins” (2007).
≈ marks a conversion by molar mass, not a printed value.

Legend:
Format in all cases: functional
Staphylococcus aureus [1] = assay: Antibacterial activity against rifamycin-sensitive Staphylococcus aureus CB190
Staphylococcus aureus [2] = assay: Antibacterial activity against intermediate rifamycin-resistant Staphylococcus aureus CB372 with rpoB Asp471Tyr mutation
Staphylococcus aureus [3] = assay: Antibacterial activity against rifamycin-resistant Staphylococcus aureus CB370 with rpoB His481Tyr mutation
Staphylococcus aureus [4] = assay: Antibacterial activity against Staphylococcus aureus ATCC 6538 induced-septicemia in po dosed mouse; settings: ATCC 6538, po
Staphylococcus aureus [5] = assay: Antibacterial activity against Staphylococcus aureus ATCC 6538 induced-septicemia in sc dosed mouse; settings: ATCC 6538, sc

CO[C@H]1/C=C/O[C@@]2(C)Oc3c(C)c(O)c4c(c3C2=O)C2=NC3(CCN(C)C3)CNC2=C(NC(=O)/C(C)=C\C=C\[C@H](C)[C@H](O)[C@@H](C)[C@@H](O)[C@@H](C)[C@H](OC(C)=O)[C@@H]1C)C4=O (some centres undefined)
MIC (Staphylococcus aureus [1]): 0.013 µg/mL (≈ 0.0162 µM)
MIC (Staphylococcus aureus [2]): 0.98 µg/mL (≈ 1.22 µM)
MIC (Staphylococcus aureus [3]): > 62.5 µg/mL

CO[C@H]1/C=C/O[C@@]2(C)Oc3c(C)c(O)c4c(c3C2=O)C2=NC3(CCN(Cc5cnc6ccccc6c5)C3)CNC2=C(NC(=O)/C(C)=C\C=C\[C@H](C)[C@H](O)[C@@H](C)[C@@H](O)[C@@H](C)[C@H](OC(C)=O)[C@@H]1C)C4=O (some centres undefined)
MIC (Staphylococcus aureus [1]): 0.063 µg/mL (≈ 0.0676 µM)
MIC (Staphylococcus aureus [2]): 7.81 µg/mL (≈ 8.38 µM)
MIC (Staphylococcus aureus [3]): > 62.5 µg/mL

CO[C@H]1/C=C/O[C@@]2(C)Oc3c(C)c(O)c4c(c3C2=O)C2=NC3(CCN(C)CC3)CNC2=C(NC(=O)/C(C)=C\C=C\[C@H](C)[C@H](O)[C@@H](C)[C@@H](O)[C@@H](C)[C@H](OC(C)=O)[C@@H]1C)C4=O
MIC (Staphylococcus aureus [1]): 0.016 µg/mL (≈ 0.0195 µM)
MIC (Staphylococcus aureus [2]): 1.95 µg/mL (≈ 2.38 µM)
MIC (Staphylococcus aureus [3]): > 62.5 µg/mL
ED50 (Staphylococcus aureus [4]): > 10 mg/kg
ED50 (Staphylococcus aureus [5]): 0.3 mg/kg

CO[C@H]1/C=C/O[C@@]2(C)Oc3c(C)c(O)c4c(c3C2=O)C2=NC3(CCN(Cc5ccccc5)C3)CNC2=C(NC(=O)/C(C)=C\C=C\[C@H](C)[C@H](O)[C@@H](C)[C@@H](O)[C@@H](C)[C@H](OC(C)=O)[C@@H]1C)C4=O (some centres undefined)
MIC (Staphylococcus aureus [1]): 0.031 µg/mL (≈ 0.0352 µM)
MIC (Staphylococcus aureus [2]): 3.91 µg/mL (≈ 4.44 µM)
MIC (Staphylococcus aureus [3]): > 62.5 µg/mL

CO[C@H]1/C=C/O[C@@]2(C)Oc3c(C)c(O)c4c(c3C2=O)C2=NC3(CCN(Cc5ccccc5)CC3)CNC2=C(NC(=O)/C(C)=C\C=C\[C@H](C)[C@H](O)[C@@H](C)[C@@H](O)[C@@H](C)[C@H](OC(C)=O)[C@@H]1C)C4=O
MIC (Staphylococcus aureus [1]): 0.003 µg/mL (≈ 0.00335 µM)
MIC (Staphylococcus aureus [2]): 1.95 µg/mL (≈ 2.18 µM)
MIC (Staphylococcus aureus [3]): 32 µg/mL (≈ 35.8 µM)

CO[C@H]1/C=C/O[C@@]2(C)Oc3c(C)c(O)c4c(c3C2=O)C2=NC3(CCN(CC(C)C)CC3)CNC2=C(NC(=O)/C(C)=C\C=C\[C@H](C)[C@H](O)[C@@H](C)[C@@H](O)[C@@H](C)[C@H](OC(C)=O)[C@@H]1C)C4=O
MIC (Staphylococcus aureus [1]): 0.063 µg/mL (≈ 0.0732 µM)
MIC (Staphylococcus aureus [2]): 7.81 µg/mL (≈ 9.07 µM)
MIC (Staphylococcus aureus [3]): > 62.5 µg/mL
ED50 (Staphylococcus aureus [4]): < 0.1 mg/kg
ED50 (Staphylococcus aureus [5]): 0.6 mg/kg

CO[C@H]1/C=C/O[C@@]2(C)Oc3c(C)c(O)c4c(c3C2=O)C2=NC3(CCN(CC(C)C)C3)CNC2=C(NC(=O)/C(C)=C\C=C\[C@H](C)[C@H](O)[C@@H](C)[C@@H](O)[C@@H](C)[C@H](OC(C)=O)[C@@H]1C)C4=O (some centres undefined)
MIC (Staphylococcus aureus [1]): 0.063 µg/mL (≈ 0.0744 µM)
MIC (Staphylococcus aureus [2]): > 62.5 µg/mL
MIC (Staphylococcus aureus [3]): 31.3 µg/mL (≈ 37 µM)

CO[C@H]1/C=C/O[C@@]2(C)Oc3c(C)c(O)c4c(c3C2=O)C2=NC3(CCN(C(=O)OC(C)(C)C)CC3)CNC2=C(NC(=O)/C(C)=C\C=C\[C@H](C)[C@H](O)[C@@H](C)[C@@H](O)[C@@H](C)[C@H](OC(C)=O)[C@@H]1C)C4=O
MIC (Staphylococcus aureus [1]): 0.026 µg/mL (≈ 0.0287 µM)
MIC (Staphylococcus aureus [2]): 7.81 µg/mL (≈ 8.63 µM)
MIC (Staphylococcus aureus [3]): > 62.5 µg/mL

CO[C@H]1/C=C/O[C@@]2(C)Oc3c(C)c(O)c4c(c3C2=O)C2=NC3(CCN(Cc5cnc6ccccc6c5)CC3)CNC2=C(NC(=O)/C(C)=C\C=C\[C@H](C)[C@H](O)[C@@H](C)[C@@H](O)[C@@H](C)[C@H](OC(C)=O)[C@@H]1C)C4=O
MIC (Staphylococcus aureus [1]): 0.063 µg/mL (≈ 0.0666 µM)
MIC (Staphylococcus aureus [2]): 0.98 µg/mL (≈ 1.04 µM)
MIC (Staphylococcus aureus [3]): 15.6 µg/mL (≈ 16.5 µM)
ED50 (Staphylococcus aureus [4]): 5 mg/kg
ED50 (Staphylococcus aureus [5]): 0.6 mg/kg

C=CCN1CCC2(CC1)CNC1=C3NC(=O)/C(C)=C\C=C\[C@H](C)[C@H](O)[C@@H](C)[C@@H](O)[C@@H](C)[C@H](OC(C)=O)[C@H](C)[C@@H](OC)/C=C/O[C@@]4(C)Oc5c(C)c(O)c(c(c5C4=O)C1=N2)C3=O
MIC (Staphylococcus aureus [1]): 0.006 µg/mL (≈ 0.0071 µM)
MIC (Staphylococcus aureus [2]): 15.6 µg/mL (≈ 18.5 µM)
MIC (Staphylococcus aureus [3]): > 62.5 µg/mL

CO[C@H]1/C=C/O[C@@]2(C)Oc3c(C)c(O)c4c(c3C2=O)C2=NC3(CCN(C(=O)OC(C)(C)C)C3)CNC2=C(NC(=O)/C(C)=C\C=C\[C@H](C)[C@H](O)[C@@H](C)[C@@H](O)[C@@H](C)[C@H](OC(C)=O)[C@@H]1C)C4=O (some centres undefined)
MIC (Staphylococcus aureus [1]): 0.016 µg/mL (≈ 0.018 µM)
MIC (Staphylococcus aureus [2]): 7.81 µg/mL (≈ 8.77 µM)
MIC (Staphylococcus aureus [3]): > 62.5 µg/mL

CO[C@H]1/C=C/O[C@@]2(C)Oc3c(C)c(O)c4c(c3C2=O)C2=NC3(CCN(CC(C)C)CC3)NC2=C(NC(=O)/C(C)=C\C=C\[C@H](C)[C@H](O)[C@@H](C)[C@@H](O)[C@@H](C)[C@H](OC(C)=O)[C@@H]1C)C4=O [RIFABUTIN]
MIC (Staphylococcus aureus [1]): 0.031 µg/mL (≈ 0.0366 µM)
MIC (Staphylococcus aureus [2]): 15.6 µg/mL (≈ 18.4 µM)
MIC (Staphylococcus aureus [3]): > 62.5 µg/mL
ED50 (Staphylococcus aureus [4]): 0.6 mg/kg
ED50 (Staphylococcus aureus [5]): < 0.1 mg/kg
